ChEMBL document CHEMBL4680295, “Structure guided development of potent piperazine-derived hydroxamic acid inhibitors targeting falcilysin” (Bioorg Med Chem Lett, 2021)

Key:
Falcilysin = biological target: T1, Falcilysin (Plasmodium falciparum (isolate 3D7), UniProt Q76NL8); assay: Inhibition of Plasmodium falciparum FLN
T1 sequence (Q76NL8 whole entry): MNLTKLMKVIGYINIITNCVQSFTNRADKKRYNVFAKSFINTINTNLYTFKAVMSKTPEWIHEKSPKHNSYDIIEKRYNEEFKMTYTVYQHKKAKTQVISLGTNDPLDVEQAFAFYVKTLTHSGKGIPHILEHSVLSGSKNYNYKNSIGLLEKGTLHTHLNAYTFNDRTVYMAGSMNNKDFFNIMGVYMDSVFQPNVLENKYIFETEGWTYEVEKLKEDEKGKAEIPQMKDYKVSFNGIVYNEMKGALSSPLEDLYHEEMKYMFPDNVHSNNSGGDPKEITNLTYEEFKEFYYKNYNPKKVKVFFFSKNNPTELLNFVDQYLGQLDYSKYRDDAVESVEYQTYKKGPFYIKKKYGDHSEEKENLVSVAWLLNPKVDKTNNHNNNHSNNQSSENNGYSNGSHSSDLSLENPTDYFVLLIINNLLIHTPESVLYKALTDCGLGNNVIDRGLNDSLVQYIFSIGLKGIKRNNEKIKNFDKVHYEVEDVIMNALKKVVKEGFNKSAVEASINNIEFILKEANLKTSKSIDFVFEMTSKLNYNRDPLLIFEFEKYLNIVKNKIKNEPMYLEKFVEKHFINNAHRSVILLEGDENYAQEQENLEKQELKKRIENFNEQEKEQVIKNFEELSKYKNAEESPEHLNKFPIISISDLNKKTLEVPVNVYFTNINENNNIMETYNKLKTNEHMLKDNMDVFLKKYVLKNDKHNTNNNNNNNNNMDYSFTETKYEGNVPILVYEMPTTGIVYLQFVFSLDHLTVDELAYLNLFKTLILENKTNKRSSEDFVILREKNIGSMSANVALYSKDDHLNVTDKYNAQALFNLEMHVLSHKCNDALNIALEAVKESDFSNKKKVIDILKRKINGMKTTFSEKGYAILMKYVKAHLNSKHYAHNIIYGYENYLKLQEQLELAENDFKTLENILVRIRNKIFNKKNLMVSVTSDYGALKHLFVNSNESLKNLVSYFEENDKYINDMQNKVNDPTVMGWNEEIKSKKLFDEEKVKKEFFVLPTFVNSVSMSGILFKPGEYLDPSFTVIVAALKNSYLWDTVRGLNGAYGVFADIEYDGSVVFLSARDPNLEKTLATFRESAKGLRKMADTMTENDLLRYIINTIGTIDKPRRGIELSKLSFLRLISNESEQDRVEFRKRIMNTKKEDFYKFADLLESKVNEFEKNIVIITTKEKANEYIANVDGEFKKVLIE

Plasmodium falciparum = assay: Parasiticidal activity against Plasmodium falciparum 3D7; type: functional, organism-based

| SMILES | Ki (Falcilysin) | EC50 (Plasmodium falciparum) |
| --- | --- | --- |
| CNC(=O)C1CN(S(=O)(=O)c2ccc(-c3ccccc3)cc2)CCN1S(=O)(=O)c1cccc(/C=C/c2ccccc2)c1 (centres undefined) | 1 µM | 5 µM |
| O=C(NO)C1CN(C(=O)c2cccc3ccccc23)CCN1S(=O)(=O)c1ccc(Br)cc1 (centres undefined) | 9 µM | 4 µM |
| CNC(=O)C1CN(S(=O)(=O)c2cccc(Br)c2)CCN1S(=O)(=O)c1ccc(-c2ccccc2)cc1 (centres undefined) | 1.4 µM | 4.7 µM |
| C#Cc1ccc(S(=O)(=O)N2CCN(C(=O)c3ccc(I)cc3)CC2C(=O)NO)cc1 (centres undefined) | > 25 µM | > 25 µM |
| O=C(NO)C1CN(C(=O)c2ccc(-c3ccccc3)cc2)CCN1S(=O)(=O)c1ccc(-c2ccccc2)cc1 (centres undefined) | 10 µM | > 25 µM |
| C#Cc1ccc(S(=O)(=O)N2CCNCC2C(=O)NO)cc1 (centres undefined) | > 25 µM | > 25 µM |
| O=C(NO)C1CN(S(=O)(=O)c2ccc(/C=C/c3ccccc3)cc2)CCN1S(=O)(=O)c1ccc(-c2ccccc2)cc1 (centres undefined) | 1.1 µM | 16 µM |
| O=C(NO)C1CN(C(=O)c2ccc(I)cc2)CCN1S(=O)(=O)c1ccc(Br)cc1 (centres undefined) | > 25 µM | > 25 µM |
| O=C(NO)C1CN(S(=O)(=O)c2ccc(-c3ccccc3)cc2)CCN1S(=O)(=O)c1ccc(-c2ccccc2)cc1 (centres undefined) | 0.22 µM | 7 µM |
| O=C(NO)C1CN(C(=O)c2ccc(-c3ccccc3)cc2)CCN1S(=O)(=O)c1ccc(-c2ccsc2)cc1 (centres undefined) | 11 µM | 6 µM |
| O=C(NO)C1CN(S(=O)(=O)c2ccc(-c3ccccc3)cc2)CCN1S(=O)(=O)c1cccc(Br)c1 (centres undefined) | 1.4 µM | 1.6 µM |
| CNC(=O)C1CN(S(=O)(=O)c2ccc(-c3ccccc3)cc2)CCN1S(=O)(=O)c1cccc(-c2ccc(C(=O)c3ccccc3)cc2)c1 (centres undefined) | 1.7 µM | 0.9 µM |
| CNC(=O)C1CN(S(=O)(=O)c2ccc(-c3cccnc3OC)cc2)CCN1S(=O)(=O)c1ccc(-c2ccccc2)cc1 (centres undefined) | 4 µM | 1.4 µM |
| O=C(NO)C1CN(C(=O)c2ccc3ccccc3c2)CCN1S(=O)(=O)c1ccc(Br)cc1 (centres undefined) | 3.5 µM | 7 µM |
| CNC(=O)C1CN(S(=O)(=O)c2ccc(-c3ccccc3)cc2)CCN1S(=O)(=O)c1cccc(CCc2ccccc2)c1 (centres undefined) | 2.5 µM | 2.1 µM |
| CNC(=O)C1CN(S(=O)(=O)c2ccc(I)cc2)CCN1S(=O)(=O)c1ccc(-c2ccccc2)cc1 (centres undefined) | 2.6 µM | 9 µM |
| COC(=O)C1CN(S(=O)(=O)c2ccc(-c3ccccc3)cc2)CCN1S(=O)(=O)c1ccc(/C=C/c2ccccc2)cc1 (centres undefined) | 0.6 µM | 0.8 µM |
| COC(=O)C1CN(Cc2ccc(-c3ccccc3)cc2)CCN1S(=O)(=O)c1ccc(Br)cc1 (centres undefined) | 4 µM | 1.4 µM |
| O=C(NO)C1CN(S(=O)(=O)c2ccc(Cc3ccccc3)cc2)CCN1S(=O)(=O)c1ccc(Br)cc1 (centres undefined) | > 25 µM | > 25 µM |
| O=C(NO)C1CN(C(=O)c2ccc(-c3ccccc3)cc2)CCN1S(=O)(=O)c1ccc(Br)cc1 (centres undefined) | 3 µM | 2.6 µM |
| O=C(NO)C1CN(Cc2ccc(-c3ccccc3)cc2)CCN1S(=O)(=O)c1ccc(I)cc1 (centres undefined) | 4.9 µM | 5 µM |
| CNC(=O)C1CN(S(=O)(=O)c2ccc(-c3ccccc3)cc2)CCN1S(=O)(=O)c1cccc(-c2cccnc2OC)c1 (centres undefined) | 4 µM | 6 µM |
| O=C(NO)C1CN(C(=O)c2ccc(-c3ccccc3)cc2)CCN1S(=O)(=O)c1ccc(I)cc1 (centres undefined) | 4 µM | 3 µM |
| O=C(NO)C1CN(Cc2ccc(-c3ccccc3)cc2)CCN1S(=O)(=O)c1ccc(Br)cc1 (centres undefined) | 5 µM | 10 µM |
| O=C(NO)C1CN(S(=O)(=O)c2ccc(-c3ccccc3)cc2)CCN1S(=O)(=O)c1cccc(-c2ccccc2)c1 (centres undefined) | 0.9 µM | 7 µM |
| C#Cc1ccc(S(=O)(=O)N2CCN(C(=O)c3ccc(C(=O)c4ccccc4)cc3)CC2C(=O)NO)cc1 (centres undefined) | > 25 µM | 6 µM |
| COC(=O)C1CN(S(=O)(=O)c2ccc(-c3ccccc3)cc2)CCN1S(=O)(=O)c1ccc(-c2ccccc2)cc1 (centres undefined) | 2.5 µM | 2.1 µM |
